Experimental data from patent US20230295157A1, “3-(1H-IMIDAZOL-2-YL)-2,3,8,8A-TETRAHYDROINDOLIZIN-5(1H)-ONE DERIVATIVES USEFUL AS FACTOR XIA INHIBITORS” (JANSSEN PHARMACEUTICA NV, priority 2020, published 2023).
Read-outs that look alike come from different tables or passages of the source.

Legend:
human plasma kallikrein = human plasma kallikrein (Homo sapiens (Human), UniProt P03952); test: Kallikrein inhibition assay (FLINT) utilizing a quenched AMC peptide substrate; format: biochemical; conditions: 30 min preincubation, read-out: Kallikrein Kin Inh IC50
How it was run: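 Enzyme (2 nM final) pre-incubated 30 min at room temperature with compound (11-point, 3-fold, top 1 μM, 2% DMSO), then 50 μM Z-Gly-Pro-Arg-AMC added in Tris pH 7.5 buffer. Kinetic fluorescence 340/440 nm every 5 min over 30 min; IC50 from 4-parameter logistic fit.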

Factor XIa = Factor XIa (Homo sapiens (Human), UniProt P03951); test: Factor XIa inhibition assay (FLINT) utilizing a fluorophore-quencher pair peptide substrate; format: biochemical; conditions: 30 min preincubation, kinetic reads over 30 min, 5Fam-KLTRAETV-K5Tamra substrate 15 μM; read-out: FXIa Kin Inh IC50
How it was run: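 FXIa ([…]) preincubated 30 min with compound (11-point 3-fold dilution, top 100 nM, 2% DMSO), then 15 μM quenched FXI Arg146-based peptide added; Tris pH 7.5, CaCl2, BSA, CHAPS. Fluorescence 485/520 nm read kinetically every 5 min over 30 min at RT; IC50 by 4-parameter fit.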

[1] = kinetic reads over 30 min, Z-Gly-Pro-Arg-AMC substrate 50 μM

human plasma kallikrein, sequence (P03952 391-638): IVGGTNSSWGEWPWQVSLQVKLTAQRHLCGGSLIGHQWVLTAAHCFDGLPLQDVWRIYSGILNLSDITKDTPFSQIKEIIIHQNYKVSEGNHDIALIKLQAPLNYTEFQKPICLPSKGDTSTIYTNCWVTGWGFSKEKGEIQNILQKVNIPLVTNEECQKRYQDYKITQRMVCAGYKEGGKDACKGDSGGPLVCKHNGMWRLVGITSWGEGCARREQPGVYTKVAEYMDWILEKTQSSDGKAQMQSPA
human plasma kallikrein, sequence (P03952 20-390 partner): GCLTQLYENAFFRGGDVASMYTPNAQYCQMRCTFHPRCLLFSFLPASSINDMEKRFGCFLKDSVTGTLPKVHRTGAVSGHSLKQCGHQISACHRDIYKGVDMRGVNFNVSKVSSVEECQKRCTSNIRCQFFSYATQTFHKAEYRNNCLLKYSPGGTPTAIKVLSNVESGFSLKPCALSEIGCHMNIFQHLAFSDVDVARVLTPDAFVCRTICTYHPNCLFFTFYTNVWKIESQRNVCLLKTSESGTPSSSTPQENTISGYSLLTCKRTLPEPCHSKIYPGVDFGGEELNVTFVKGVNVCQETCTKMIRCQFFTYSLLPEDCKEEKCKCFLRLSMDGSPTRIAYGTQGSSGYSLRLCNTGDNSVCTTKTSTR
Factor XIa, sequence (P03951 388-625): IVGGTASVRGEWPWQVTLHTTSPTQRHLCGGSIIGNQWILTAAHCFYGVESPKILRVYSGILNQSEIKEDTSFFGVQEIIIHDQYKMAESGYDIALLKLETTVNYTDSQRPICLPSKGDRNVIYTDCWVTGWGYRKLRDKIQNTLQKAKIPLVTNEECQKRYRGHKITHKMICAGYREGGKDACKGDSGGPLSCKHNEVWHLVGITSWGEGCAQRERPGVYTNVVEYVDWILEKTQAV
Factor XIa, sequence (P03951 19-387 partner): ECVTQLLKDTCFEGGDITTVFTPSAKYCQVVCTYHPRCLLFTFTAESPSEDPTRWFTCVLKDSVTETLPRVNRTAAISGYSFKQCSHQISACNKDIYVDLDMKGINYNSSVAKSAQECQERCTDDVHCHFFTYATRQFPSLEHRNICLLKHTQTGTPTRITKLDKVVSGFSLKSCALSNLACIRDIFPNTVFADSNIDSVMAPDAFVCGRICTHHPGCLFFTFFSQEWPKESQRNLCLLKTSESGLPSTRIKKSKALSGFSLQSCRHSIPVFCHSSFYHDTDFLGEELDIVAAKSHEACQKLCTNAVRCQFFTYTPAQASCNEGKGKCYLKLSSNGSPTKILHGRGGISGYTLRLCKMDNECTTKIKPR

Row | Compound | IC50 (human plasma kallikrein; [1]) | IC50 (Factor XIa) | IC50 (human plasma kallikrein; μM, kinetic reads)
1 | O=C1Nc2ccc(-c3cnc([C@@H]4CCC5CC(c6c(-n7cnnn7)ccc(Cl)c6F)=CC(=O)N54)[nH]3)cc2CO1 (stereo partly drawn) [Example 297, 6-(2-((3S)-7-(3-Chloro-2-fluoro-6-(1H-tetrazol-1-yl)phenyl)-5-oxo-1,2,3,5,8,8a-hexahydroindolizin-3-yl)-1H-imidazol-5-yl)-1H-benzo[d][1,3]oxazin-2(4H)-one] | 0.001 µM | 0.3 nM | –
2 | O=C(Nc1ccccc1-c1cnc([C@@H]2CC[C@@H]3CC(c4c(-n5cnnn5)ccc(Cl)c4F)=CC(=O)N32)[nH]1)C1CC1 [Example 307, N-(2-(2-((3S,8aR)-7-(3-Chloro-2-fluoro-6-(1H-tetrazol-1-yl)phenyl)-5-oxo-1,2,3,5,8,8a-hexahydroindolizin-3-yl)-1H-imidazol-4-yl)phenyl)cyclopropanecarboxamide] | 0.0007 µM | 0.3 nM | –
3 | O=C1C=C(c2c(-n3cnnn3)ccc(Cl)c2F)CC2CC[C@@H](c3ncc(-c4ccc5[nH]c(=O)oc5c4)[nH]3)N12 (stereo partly drawn) [Example 309, 6-(2-((3S)-7-(3-Chloro-2-fluoro-6-(1H-tetrazol-1-yl)phenyl)-5-oxo-1,2,3,5,8,8a-hexahydroindolizin-3-yl)-1H-imidazol-4-yl)benzo[d]oxazol-2(3H)-one] | 0.0013 µM | 1.9 nM | –
4 | O=C1CCc2cc(-c3cnc([C@@H]4CCC5CC(c6c(-n7cnnn7)ccc(Cl)c6F)=CC(=O)N54)[nH]3)ccc2N1 (stereo partly drawn) [Example 311, 6-(2-((3S)-7-(3-Chloro-2-fluoro-6-(1H-tetrazol-1-yl)phenyl)-5-oxo-1,2,3,5,8,8a-hexahydroindolizin-3-yl)-1H-imidazol-5-yl)-3,4-dihydroquinolin-2(1H)-one] | 0.0007 µM | 0.3 nM | –
5 | O=C1C=C(c2c(-n3cnnn3)ccc(Cl)c2F)CC2CC[C@@H](c3ncc(-c4ccc5[nH]c(=O)[nH]c5c4)[nH]3)N12 (stereo partly drawn) [Example 312, 5-(2-((3S)-7-(3-Chloro-2-fluoro-6-(1H-tetrazol-1-yl)phenyl)-5-oxo-1,2,3,5,8,8a-hexahydroindolizin-3-yl)-1H-imidazol-5-yl)-1H-benzo[d]imidazol-2(3H)-one] | 0.0006 µM | 0.3 nM | –
6 | Nc1n[nH]c2cc(-c3cnc([C@@H]4CCC5CC(c6c(-n7cnnn7)ccc(Cl)c6F)=CC(=O)N54)[nH]3)ccc12 (stereo partly drawn) [Example 313, (3S)-3-(5-(3-Amino-1H-indazol-6-yl)-1H-imidazol-2-yl)-7-(3-chloro-2-fluoro-6-(1H-tetrazol-1-yl)phenyl)-2,3,8,8a-tetrahydroindolizin-5(1H)-one] | 0.0006 µM | 0.2 nM | –
7 | O=C1Cc2cc(-c3cnc([C@@H]4CCC5CC(c6c(-n7cnnn7)ccc(Cl)c6F)=CC(=O)N54)[nH]3)ccc2N1 (stereo partly drawn) [Example 314, 5-(2-((3S)-7-(3-Chloro-2-fluoro-6-(1H-tetrazol-1-yl)phenyl)-5-oxo-1,2,3,5,8,8a-hexahydroindolizin-3-yl)-1H-imidazol-5-yl)indolin-2-one] | 0.0032 µM | 1 nM | –
8 | CN(C)c1ccc(-c2cnc([C@@H]3CCC4CC(c5c(-n6cnnn6)ccc(Cl)c5F)=CC(=O)N43)[nH]2)c(F)n1 (stereo partly drawn) [Example 315, (3S)-7-(3-Chloro-2-fluoro-6-(1H-tetrazol-1-yl)phenyl)-3-(5-(6-(dimethylamino)-2-fluoropyridin-3-yl)-1H-imidazol-2-yl)-2,3,8,8a-tetrahydroindolizin-5(1H)-one] | 0.0348 µM | 31.1 nM | –
9 | COC(=O)Nc1ccc(-c2cnc([C@@H]3CC[C@@H]4CC(c5c(-n6cnnn6)ccc(Cl)c5F)=CC(=O)N43)[nH]2)nc1 [Example 316, Methyl (6-(2-((3S,8aR)-7-(3-chloro-2-fluoro-6-(1H-tetrazol-1-yl)phenyl)-5-oxo-1,2,3,5,8,8a-hexahydroindolizin-3-yl)-1H-imidazol-5-yl)pyridin-3-yl)carbamate] | 0.0255 µM | 5 nM | –
10 | COc1ccccc1-c1c[nH]c([C@@H]2CCC3CC(c4c(-n5cnnn5)ccc(Cl)c4F)=CC(=O)N32)n1 (stereo partly drawn) [Example 317, (3S)-7-(3-Chloro-2-fluoro-6-(1H-tetrazol-1-yl)phenyl)-3-(4-(2-methoxyphenyl)-1H-imidazol-2-yl)-2,3,8,8a-tetrahydroindolizin-5(1H)-one] | 0.0129 µM | 5.3 nM | –
11 | O=C1OCCN1c1ccc(-c2cnc([C@@H]3CCC4CC(c5c(-n6cnnn6)ccc(Cl)c5F)=CC(=O)N43)[nH]2)cc1 (stereo partly drawn) [Example 318, 3-(4(2-((3S)-7-(3-Chloro-2-fluoro-6-(1H-tetrazol-1-yl)phenyl)-5-oxo-1,2,3,5,8,8a-hexahydroindolizin-3-yl)-1H-imidazol-5-yl)phenyl)oxazolidin-2-one] | 0.0715 µM | 54.1 nM | –
12 | COC(=O)Nc1ccc(-c2cnc([C@@H]3CCC4CC(c5c(OCC(F)(F)F)ccc(Cl)c5F)=CC(=O)N43)[nH]2)cc1 (stereo partly drawn) [Example 324, Methyl (4-(2-((3S)-7-(3-Chloro-2-fluoro-6-(2,2,2-trifluoroethoxy)phenyl)-5-oxo-1,2,3,5,8,8a-hexahydroindolizin-3-yl)-1H-imidazol-5-yl)phenyl)carbamate] | 0.095 µM | 14.3 nM | –
13 | COC(=O)Nc1ccc(-c2cnc([C@@H]3CCC4CC(c5c(-n6cnnn6)ccc(Cl)c5F)=CC(=O)N43)[nH]2)cn1 (stereo partly drawn) [Example 325, Methyl (5-(2-((3S)-7-(3-Chloro-2-fluoro-6-(1H-tetrazol-1-yl)phenyl)-5-oxo-1,2,3,5,8,8a-hexahydroindolizin-3-yl)-1H-imidazol-5-yl)pyridin-2-yl)carbamate] | 0.007 µM | 1.2 nM | –
14 | COC(=O)Nc1ccc(-c2cnc([C@@H]3CCC4CC(c5c(-n6cnnn6)ccc(Cl)c5F)=CC(=O)N43)[nH]2)nc1 (stereo partly drawn) [Example 326, Methyl (6-(2-((3S)-7-(3-Chloro-2-fluoro-6-(1H-tetrazol-1-yl)phenyl)-5-oxo-1,2,3,5,8,8a-hexahydroindolizin-3-yl)-1H-imidazol-5-yl)pyridin-3-yl)carbamate] | 0.0124 µM | 1 nM | –
15 | CO[C@@H]1C[C@@H](c2nc(-c3ccc(N)nc3F)c[nH]2)N2C(=O)C=C(c3c(-n4cnnn4)ccc(Cl)c3F)CC12 (stereo partly drawn) [Example 327, (1R,3S)-3-(4-(6-Amino-2-fluoropyridin-3-yl)-1H-imidazol-2-yl)-7-(3-chloro-2-fluoro-6-(1H-tetrazol-1-yl)phenyl)-1-methoxy-2,3,8,8a-tetrahydroindolizin-5(1H)-one] | 0.0095 µM | 0.6 nM | –
16 | CC1CC2CC(c3c(-n4cnnn4)ccc(Cl)c3F)=CC(=O)N2C1c1ncc(-c2ccc(N)nc2F)[nH]1 (stereo not shown) [Example 328, 3-(5-(6-Amino-2-fluoropyridin-3-yl)-1H-imidazol-2-yl)-7-(3-chloro-2-fluoro-6-(1H-tetrazol-1-yl)phenyl)-2-methyl-2,3,8,8a-tetrahydroindolizin-5(1H)-one] | 0.0459 µM | 3.4 nM | –
17 | CC(C)C(=O)Nc1ccccc1-c1c[nH]c([C@@H]2CCC3CC(c4c(-n5cnnn5)ccc(Cl)c4F)=CC(=O)N32)n1 (stereo partly drawn) [Example 329, N-(2-(2-((3S)-7-(3-Chloro-2-fluoro-6-(1H-tetrazol-1-yl)phenyl)-5-oxo-1,2,3,5,8,8a-hexahydroindolizin-3-yl)-1H-imidazol-4-yl)phenyl)isobutyramide] | 0.0013 µM | 0.5 nM | –
18 | O=C(Nc1ccccc1-c1c[nH]c([C@@H]2CCC3CC(c4c(-n5cnnn5)ccc(Cl)c4F)=CC(=O)N32)n1)C1CCCC1 (stereo partly shown) [Example 330] | 0.0024 µM | 0.9 nM | –
19 | O=C1C=C(c2c(-n3cnnn3)ccc(Cl)c2F)CC2CC[C@@H](c3nc(-c4nc[nH]n4)c[nH]3)N12 (stereo partly drawn) [Example 331, (3S)-3-(4-(1H-1,2,4-Triazol-3-yl)-1H-imidazol-2-yl)-7-(3-chloro-2-fluoro-6-(1H-tetrazol-1-yl)phenyl)-2,3,8,8a-tetrahydroindolizin-5(1H)-one] | – | 347 nM | 2.4 µM
20 | O=C1C=C(c2c(-n3cnnn3)ccc(Cl)c2F)CC2CC[C@@H](c3nc(-c4cnn[nH]4)c[nH]3)N12 (stereo partly drawn) [Example 332, (3S)-3-(4-(1H-1,2,3-Triazol-5-yl)-1H-imidazol-2-yl)-7-(3-chloro-2-fluoro-6-(1H-tetrazol-1-yl)phenyl)-2,3,8,8a-tetrahydroindolizin-5(1H)-one] | 0.542 µM | 85.8 nM | –
21 | O=C1C=C(c2c(-n3cnnn3)ccc(Cl)c2F)CC2CC[C@@H](c3nc(-c4ncc[nH]4)c[nH]3)N12 (stereo partly drawn) [Example 333, (3S)-3-(1H,1′H-[2,4′-Biimidazol]-2′-yl)-7-(3-chloro-2-fluoro-6-(1H-tetrazol-1-yl)phenyl)-2,3,8,8a-tetrahydroindolizin-5(1H)-one] | – | 282 nM | 1.1 µM
22 | Cn1ccnc1-c1c[nH]c([C@@H]2CCC3CC(c4c(-n5cnnn5)ccc(Cl)c4F)=CC(=O)N32)n1 (stereo partly drawn) [Example 334, (3S)-7-(3-chloro-2-Fluoro-6-(1H-tetrazol-1-yl)phenyl)-3-(1-methyl-1H,1′H-[2,4′-biimidazol]-2′-yl)-2,3,8,8a-tetrahydroindolizin-5(1H)-one] | – | 211 nM | 7.3 µM
23 | Cn1nncc1-c1c[nH]c([C@@H]2CCC3CC(c4c(-n5cnnn5)ccc(Cl)c4F)=CC(=O)N32)n1 (stereo partly drawn) [Example 339, (3S)-7-(3-Chloro-2-fluoro-6-(1H-tetrazol-1-yl)phenyl)-3-(4-(1-methyl-1H-1,2,3-triazol-5-yl)-1H-imidazol-2-yl)-2,3,8,8a-tetrahydroindolizin-5(1H)-one] | – | 134 nM | 2.05 µM
